Legend:
TGFβR1 = TGFβR1 (Homo sapiens (Human), UniProt P36897); experiment: TGFβR1 kinase inhibition assay (ADP-Glo Kinase Assay); format: biochemical; details: 40 nM TGFβR1 in 2x enzyme mix, 5.4 μM ATP in 2x substrate mix, 120 min RT
Procedure: TGFβR1 kinase assay was performed according to the instruction manual of the ADP-Glo™ Kinase Assay kit provided by Promega. Prepare 1× Kinase buffer (50 mM Tris pH7.5, 0.1% BSA, 10 mM MgCl2, 1 mM DTT). Before activation reaction was started, Compounds were dissolved in DMSO and make 100× solution with 3-fold serial dilution for a total of 10 concentrations. Transfer 50 nL compounds to 384-well plate according to plate map using the automated liquid handler. […] Add 5 μL ADP-Glo Reagent to terminate the kinase reaction and deplete the remaining ATP, incubate at RT for 60 minutes. Add 10 μL Kinase Detection Reagent to convert ADP to ATP and allow the newly synthesized ATP to be measured using a luciferin reaction, incubate at RT for 30 minutes. Collect luminescence data with Envision.

TGFβR2 = TGFβR2 (Homo sapiens (Human), UniProt P37173); experiment: TGFβR2 kinase inhibition assay (ADP-Glo); format: biochemical; details: 10 uM ATP, 120 min room temperature
Procedure: The TGFβR2 enzyme reaction was carried out as follows: 50 nL of compound in DMSO (or DMSO controls) were stamped into 384 white, low-volume plates. 2.5 μL of 2× enzyme solution (final enzyme concentration was 3 ng/uL in 40 mMTris, 7.5; 20 mM MgCl2; 0.1 mg/mL BSA; 1 mM DTT) was dispensed into assay plate. The plate was then sealed and spun at 1000 rpm for 30 s and incubated at room temperature for 10 min. Followed by addition of 2.5 μL of 2× substrate solution that contains both ATP (to make a final concentration of 10 uM) and TGFβR2 substrate (final concentration of 0.2 ug/uL). The plate was then sealed and spun at 1000 rpm for 30 s and the reaction was then incubated at room temperature for 120 min. After that 5 μL ADP-Glo™ Reagent was added into the assay wells to stop the reaction and deplete unconsumed ATP for 40 min at room temperature; then, 10 μL of Detection Reagent was added into the assay wells, followed by 40 min incubation to develop luminescence. The luminescence signal was then collected on Envision 2104 plate reader.

Sequence of TGFβR1 (P36897 34-503): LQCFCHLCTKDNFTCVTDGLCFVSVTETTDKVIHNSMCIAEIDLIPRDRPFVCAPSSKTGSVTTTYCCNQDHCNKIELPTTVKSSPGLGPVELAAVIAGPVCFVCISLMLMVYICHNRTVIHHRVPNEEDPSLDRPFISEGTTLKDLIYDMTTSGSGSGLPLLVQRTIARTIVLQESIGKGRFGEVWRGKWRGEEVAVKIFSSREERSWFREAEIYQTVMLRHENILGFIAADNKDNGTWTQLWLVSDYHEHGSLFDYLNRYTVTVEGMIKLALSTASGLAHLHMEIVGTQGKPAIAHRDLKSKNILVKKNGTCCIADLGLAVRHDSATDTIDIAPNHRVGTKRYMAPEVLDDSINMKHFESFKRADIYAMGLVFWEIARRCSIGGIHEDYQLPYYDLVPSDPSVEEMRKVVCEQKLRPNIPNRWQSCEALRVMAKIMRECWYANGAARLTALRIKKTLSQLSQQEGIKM
Sequence of TGFβR2 (P37173 23-567): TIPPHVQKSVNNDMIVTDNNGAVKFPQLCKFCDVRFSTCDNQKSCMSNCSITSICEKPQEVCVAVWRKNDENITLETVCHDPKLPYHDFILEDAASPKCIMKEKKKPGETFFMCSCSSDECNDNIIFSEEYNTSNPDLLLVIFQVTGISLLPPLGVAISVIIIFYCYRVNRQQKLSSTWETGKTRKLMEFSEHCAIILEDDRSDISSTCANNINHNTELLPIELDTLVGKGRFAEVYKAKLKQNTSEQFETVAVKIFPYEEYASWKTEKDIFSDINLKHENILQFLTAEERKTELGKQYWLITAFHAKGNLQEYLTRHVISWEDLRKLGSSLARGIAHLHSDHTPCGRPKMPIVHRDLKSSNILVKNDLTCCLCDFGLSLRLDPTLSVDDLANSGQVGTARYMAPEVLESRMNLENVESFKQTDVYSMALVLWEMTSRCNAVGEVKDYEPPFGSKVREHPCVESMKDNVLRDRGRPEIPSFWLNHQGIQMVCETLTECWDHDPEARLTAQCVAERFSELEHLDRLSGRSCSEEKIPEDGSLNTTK

Row | Structure (SMILES) | IC50 (TGFβR1) [nM] | IC50 (TGFβR2) [nM]
1 | CC(C)(O)c1cc(Nc2cc(Oc3cc(C4CC4)nn3C3CCOCC3)ccn2)ccn1 [Compound 1] | 61 | 
2 | CC(C)(O)c1cc(Nc2cc(Oc3cc(C4CC4)nn3C3CCOCC3)ncn2)ccn1 [Compound 3] | 825 | > 100000
3 | Cc1cc(Oc2ccnc(Nc3ccnc(C(C)(C)O)c3)c2)n(C2CCOCC2)n1 [Compound 4] | 60 | 
4 | CC(C)(O)c1cc(Nc2cc(Oc3cc(C4CC4)nn3C3CC3)ccn2)ccn1 [Compound 5] | 43 | > 100000
5 | CC(C)(O)c1cc(Nc2cc(Oc3cc(C4CC4)nn3C(C)(C)C)ccn2)ccn1 [Compound 6] | 46 | 
6 | CC(C)(O)c1cc(Nc2cc(Oc3cc(C(F)(F)F)nn3C3CC3)ccn2)ccn1 [Compound 7] | 557 | > 100000
7 | CC(C)(O)c1cc(Nc2cc(Oc3cc(C(F)F)nn3C3CCOCC3)ccn2)ccn1 [Compound 8] | 173 | > 100000
8 | N#Cc1cccc(Nc2cc(Oc3cc(C(F)(F)F)nn3C3CCOCC3)ccn2)c1 [Compound 9] | 163 | > 100000
9 | N#Cc1ccc(Nc2cc(Oc3cc(C(F)(F)F)nn3C3CCOCC3)ccn2)cc1 [Compound 10] | 131 | > 100000
10 | NS(=O)(=O)c1ccc(Nc2cc(Oc3cc(C4CC4)nn3C3CCOCC3)ccn2)cc1 [Compound 14] | 37 | > 100000
11 | CC(C)(C)n1nc(C2CC2)cc1Oc1ccnc(Nc2ccc(S(N)(=O)=O)cc2)c1 [Compound 15] | 94 | > 100000
12 | CC(C)(O)c1cc(Nc2cc(Oc3cc(C(F)(F)F)nn3C(C)(C)C)ccn2)ccn1 [Compound 16] | 34 | 34000
13 | CC(C)(O)c1cc(Nc2cc(Oc3cc(C(F)(F)F)nn3-c3ccccc3)ccn2)ccn1 [Compound 17] | 12 | 1000
14 | C[C@@H]1C[C@@H](n2nc(C3CC3)cc2Oc2ccnc(Nc3ccnc(C(C)(C)O)c3)c2)C[C@H](C)O1 [Compound 18] | > 10000 | 
15 | C[C@@H]1C[C@H](n2nc(C3CC3)cc2Oc2ccnc(Nc3ccnc(C(C)(C)O)c3)c2)C[C@H](C)O1 [Compound 19] | 7710 | 
16 | CC(C)(O)c1cc(Nc2cc(Oc3cc(C(F)(F)F)nn3CC3CC3)ccn2)ccn1 [Compound 20] | 48 | 
17 | CC(C)(O)c1cc(Nc2cc(Oc3cc(C4CC4)nn3CC(F)(F)F)ccn2)ccn1 [Compound 21] | 37 | > 100000
18 | CCn1nc(C(F)(F)F)cc1Oc1ccnc(Nc2ccnc(C(C)(C)O)c2)c1 [Compound 22] | 54 | 
19 | CC(C)(O)c1cc(Nc2cc(Oc3cc(C(F)(F)F)nn3C3CNC3)ccn2)ccn1 [Compound 24] | 223 | 
20 | CC(C)n1nc(C(F)(F)F)cc1Oc1ccnc(Nc2ccnc(C(C)(C)O)c2)c1 [Compound 25] | 66 | 

Row | Structure (SMILES) | IC50 (TGFβR1) [nM] | IC50 (TGFβR2) [nM]
21 | CC(C)(O)c1cc(Nc2cc(Oc3cc(C(F)(F)F)nn3C3CCNCC3)ccn2)ccn1 [Compound 26] | 88 | 
22 | CC(C)(O)c1cc(Nc2cc(Oc3cc(C(F)(F)F)nn3C3CC3)ccn2)ccn1 [Compound 27] | 58 | 
23 | CC(C)(O)c1cc(Nc2cc(Oc3cc(C4CC4)nn3[C@H]3C[C@H]4CC[C@@H](C3)O4)ccn2)ccn1 [Compound 28] | 35 | 36000
24 | CC(C)(O)c1cc(Nc2cc(Oc3cc(C4CC4)nn3[C@@H]3C[C@H]4CC[C@@H](C3)O4)ccn2)ccn1 [Compound 29] | 19 | 89000
25 | C[C@@H]1C[C@@H](n2nc(C(F)(F)F)cc2Oc2ccnc(Nc3ccnc(C(C)(C)O)c3)c2)C[C@H](C)O1 [Compound 30] | 89 | 
26 | C[C@@H]1C[C@H](n2nc(C(F)(F)F)cc2Oc2ccnc(Nc3ccnc(C(C)(C)O)c3)c2)C[C@H](C)O1 [Compound 31] | 1040 | 
27 | CC(C)(O)c1cc(Nc2cc(Oc3cc(C(F)(F)F)nn3C3CCNC3)ccn2)ccn1 (centres unmarked) [Compound 32] | 868 | 
28 | CC(C)(O)c1cc(Nc2cc(Oc3cc(C(F)(F)F)nn3-c3ccc(F)cc3)ccn2)ccn1 [Compound 35] | 86 | 
29 | CC(C)(O)c1cc(Nc2cc(Oc3cc(C(F)(F)F)nn3-c3cccc(Cl)c3)ccn2)ccn1 [Compound 36] | 56 | 
30 | CC(C)(O)c1cc(Nc2cc(Oc3cc(C(F)(F)F)nn3-c3cccnc3)ccn2)ccn1 [Compound 37] | 283 | 
31 | COc1cc(Oc2ccnc(Nc3ccnc(C(C)(C)O)c3)c2)n(C2CCOCC2)n1 [Compound 39] | 126 | 
32 | CC(C)(O)c1cc(Nc2cc(Oc3cc(C(F)(F)F)nn3-c3ccccc3Cl)ccn2)ccn1 [Compound 40] | 71 | 
33 | CC(C)(O)c1cc(Nc2cc(Oc3cc(C(F)(F)F)nn3-c3cncnc3)ccn2)ccn1 [Compound 42] | 263 | 
34 | CC(C)(O)c1cc(Nc2cc(Oc3cc(C(F)(F)F)nn3-c3ccc(Cl)cc3)ccn2)ccn1 [Compound 43] | 159 | 
35 | CC(C)(O)c1cc(Nc2cc(Oc3cc(C(F)(F)F)nn3-c3ccc(C#N)cc3)ccn2)ccn1 [Compound 44] | 141 | 
36 | CC1(C)OC(=N)c2ccc(Nc3cc(Oc4cc(C5CC5)nn4C4CCOCC4)ccn3)cc21 [Compound 46] | 66 | 
37 | CC1(C)OC(=O)c2ccc(Nc3cc(Oc4cc(C5CC5)nn4C4CCOCC4)ccn3)cc21 [Compound 47] | 103 | 
38 | CC(C)(O)c1cc(Nc2cc(Oc3cc(C(F)(F)F)nn3-c3ccncc3)ccn2)ccn1 [Compound 48] | 132 | 
39 | CC(C)(O)c1cc(Nc2cc(Oc3cc(C(F)(F)F)nn3[C@@H]3C[C@H]4CC[C@@H](C3)O4)ccn2)ccn1 [Compound 49] | 32 | 
40 | CC(C)(O)c1cc(Nc2cc(Oc3cc(C(F)(F)F)nn3[C@H]3C[C@H]4CC[C@@H](C3)O4)ccn2)ccn1 [Compound 50] | 113 | 

Row | Structure (SMILES) | IC50 (TGFβR1) [nM] | IC50 (TGFβR2) [nM]
41 | CC(C)(O)c1cc(Nc2cc(Oc3cc(C(F)(F)F)nn3-c3ccccc3C#N)ccn2)ccn1 [Compound 51] | 55 | 
42 | COc1ccc(Oc2ccnc(Nc3ccnc(C(C)(C)O)c3)c2)c(C2CCOCC2)n1 [Compound 56] | 220 | 
43 | CC(C)(O)c1cc(Nc2cc(Oc3ccc(C(F)(F)F)nc3C3CCOCC3)ccn2)ccn1 [Compound 60] | 50 | 
44 | CC(C)(O)c1cc(Nc2cc(Oc3ccc(C4CC4)nc3C3CCOCC3)ccn2)ccn1 [Compound 61] | 116 | 
45 | Cc1ccc(Oc2ccnc(Nc3ccc(C(C)(C)O)nc3)c2)c(C)n1 [Compound 62] | 29 | 
46 | Cc1ccc(Oc2ccnc(Nc3ccnc(C(C)(C)O)c3)c2)c(C(F)(F)F)n1 [Compound 63] | 82 | 
47 | COc1ccc(Oc2ccnc(Nc3ccnc(C(C)(C)O)c3)c2)c(C)n1 [Compound 64] | 32 | 
48 | Cc1nc(C(F)(F)F)ccc1Oc1ccnc(Nc2ccnc(C(C)(C)O)c2)c1 [Compound 65] | 14 | 
49 | Cc1ccc(Oc2ccnc(Nc3ccnc(C(C)(C)O)c3)c2)c(CC(C)C)n1 [Compound 66] | 4 | 
50 | CC(C)(O)c1cc(Nc2cc(Sc3cn(C4CC4)nc3C3CCOCC3)ccn2)ccn1 [Compound 70] | 80 | 
51 | CC(C)(O)c1cc(Nc2cc(Oc3c(C4CCOCC4)nn4c3CCC4)ccn2)ccn1 [Compound 71] | 25 | 
52 | CC(C)(O)c1cc(Nc2cc(Oc3sc(C4CC4)nc3C3CCOCC3)ccn2)ccn1 [Compound 72] | 111 | 
53 | NS(=O)(=O)c1ccc(Nc2cc(Oc3cn(C4CC4)nc3C3CCOCC3)ccn2)cc1 [Compound 73] | 14 | 
54 | C[C@@H]1CC(c2nn(C3CC3)cc2Oc2ccnc(Nc3ccnc(C(C)(C)O)c3)c2)C[C@H](C)O1 (some centres unmarked) [Compound 74] | 17 | 
55 | CC(C)(C)c1nc(C2CC2)sc1Oc1ccnc(Nc2ccnc(C(C)(C)O)c2)c1 [Compound 75] | 6690 | 
56 | CC(C)c1nc(C2CCOCC2)c(Oc2ccnc(Nc3ccnc(C(C)(C)O)c3)c2)s1 [Compound 76] | 90 | 
57 | CC(C)(O)c1cc(Nc2cc(Oc3cn(C4CC4)nc3C3CCC(F)(F)CC3)ccn2)ccn1 [Compound 77] |  | 39000
58 | CC(C)(O)c1cc(Nc2cc(Oc3cn(C4CC4)nc3C(=O)Nc3ccccc3F)ccn2)ccn1 [Compound 80] | 57 | 
